# From patent US9409884B2 (Rigel Pharmaceuticals, Inc., priority 2012, dated 2016)
# Where a name gives a salt, the structure may show the parent alone.
# Target: AMPK
# Test: AMPK activation, enzyme-linked immunosorbent assay
# Type: biochemical
# Conditions: Table 8, compounds of Table 1
# Outline: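 Read-out: ELISA, used to detect compound-driven activation of AMPK.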
row,EC50,Structure (SMILES)
1,> 10000 nM,"COC(=O)c1ccc(CN2CCC(NC(=O)c3ccc(OC4CCN(c5ccc(C(F)(F)F)cc5)CC4)nc3)CC2)cc1 [Compound 1-45, methyl 4-((4-(6-(1-(4-(trifluoromethyl)phenyl)piperidin-4-yloxy)nicotinamido)piperidin-1-yl)methyl)benzoate]"
2,< 100 nM,"O=C(NC1CCN(Cc2ccc(F)cc2)CC1)c1cc2ccc(OC3CCN(c4ccc(OC(F)(F)F)cc4)CC3)cc2o1 [Compound 1-94, N-(1-(4-fluorobenzyl)piperidin-4-yl)-6-(1-(4-(trifluoromethoxy)phenyl)piperidin-4-yloxy)benzofuran-2-carboxamide]"
3,100 to 500 nM,"Cc1c(C(=O)NC2CCN(C(=O)OC(C)(C)C)CC2)oc2cc(OC3CCN(c4ccc(C(F)(F)F)cc4)CC3)ccc12 [Compound 1-61, tert-butyl 4-(3-methyl-6-(1-(4-(trifluoromethyl)phenyl)piperidin-4-yloxy)benzofuran-2-carboxamido) piperidine-1-carboxylate]"
4,< 100 nM,"CN(C(=O)c1cc2cc(OC3CCN(c4ccc(C(F)(F)F)cc4)CC3)ccc2o1)C1CCN(Cc2ccc(C(F)(F)F)cc2)CC1 [Compound 1-119, N-methyl-N-(1-(4-(trifluoromethyl)benzyl)piperidin-4-yl)-5-(1-(4-(trifluoromethyl)phenyl)piperidin-4-yloxy)benzofuran-2-carboxamide]"
5,1000 to 5000 nM,"O=C(NC1CCN(Cc2ccc(F)cc2)CC1)c1ccnc(OC2CCN(c3ccc(C(F)(F)F)cc3)CC2)c1 [Compound 1-22, N-(1-(4-fluorobenzyl)piperidin-4-yl)-2-(1-(4-(trifluoromethyl)phenyl)piperidin-4-yloxy) isonicotinamide]"
6,< 100 nM,"CC(C)(C)OC(=O)N1CCC(NC(=O)c2cc3cc(OC4CCN(c5ccc(C(F)(F)F)cc5)CC4)ccc3s2)CC1 [Compound 1-149, tert-butyl 4-(5-(1-(4-(trifluoromethyl)phenyl)piperidin-4-yloxy)benzo [b]thiophene-2-carboxamido) piperidine-1-carboxylate]"
7,100 to 500 nM,"O=C(N[C@@H]1CCN(Cc2cccnc2)C1)c1cc2cc(OC3CCN(c4ccc(C(F)(F)F)cc4)CC3)ccc2o1 [Compound 1-123, (R)-N-(1-(pyridin-3-ylmethyl)pyrrolidin-3-yl)-5-(1-(4-(trifluoromethyl)phenyl)piperidin-4-yloxy)benzofuran-2-carboxamide]"
8,100 to 500 nM,"N#Cc1ccc(CN2CCC(NC(=O)c3ccc(OC4CCN(c5ccc(C(F)(F)F)cc5)CC4)nc3)CC2)cc1 [Compound 1-35, N-(1-(4-cyanobenzyl)piperidin-4-yl)-6-(1-(4-(trifluoromethyl)phenyl)piperidin-4-yloxy) nicotinamide]"
9,> 10000 nM,"O=C(N[C@H]1CCNC1)c1ccc(OC2CCN(c3ccc(C(F)(F)F)cc3)CC2)cn1 [Compound 1-27, (S)-N-(pyrrolidin-3-yl)-5-(1-(4-(trifluoromethyl)phenyl)piperidin-4-yloxy)picolinamide]"
10,< 100 nM,"O=C(NC1CCN(C(=O)c2ccncc2)CC1)c1cc2ccc(OC3CCN(c4ccc(C(F)(F)F)cc4)CC3)cc2o1 [Compound 1-112, N-(1-isonicotinoylpiperidin-4-yl)-6-(1-(4-(trifluoromethyl)phenyl)piperidin-4-yloxy)benzofuran-2-carboxamide]"
11,< 100 nM,"O=C(NC1CCN(Cc2ccc(C(F)(F)F)cc2)CC1)c1cc2cc(OC3CCN(c4ccc(C(F)(F)F)cc4)CC3)ccc2o1 [Compound 1-100, N-(1-(4-(trifluoromethyl)benzyl)piperidin-4-yl)-5-(1-(4-(trifluoromethyl)phenyl)piperidin-4-yloxy)benzofuran-2-carboxamide]"
12,< 100 nM,"N#Cc1ccc(CN2CCC(NC(=O)c3cc4cc(O[C@@H]5CCN(Cc6ccc(Oc7ccc(F)cc7)cc6)C[C@H]5F)ccc4o3)CC2)cc1 [Compound 1-165, N-(1-(4-cyanobenzyl)piperidin-4-yl)-5-((3,4-trans)-3-fluoro-1-(4-(4-fluorophenoxy)benzyl)piperidin-4-yloxy)benzofuran-2-carboxamide]"

# Same assay, conditions: Table 8, compounds of Table 1; formate salt
row,EC50,Structure (SMILES)
1,< 100 nM,"O=C(NC1CCN(Cc2ccncc2)CC1)c1cc2cc(OC3CCN(c4ccc(C(F)(F)F)cc4)CC3)ccc2o1 [Compound 1-105, N-(1-(pyridin-4-ylmethyl)piperidin-4-yl)-5-(1-(4-(trifluoromethyl)phenyl)piperidin-4-yloxy)benzofuran-2-carboxamide, formate salt]"

# Same assay, conditions: Table 9, compounds of Table 2
row,EC50,Structure (SMILES)
1,500 to 1000 nM,"Cn1c2c(c3cc(C(=O)NC4CCN(Cc5ccc(C(F)(F)F)cc5)CC4)ccc31)CN(Cc1ccc(C(F)(F)F)cc1)CC2 [Compound 2-17, N-(1-(4-trifluoromethylbenzyl)piperidin-4-yl)-5-methyl-2-(4-(trifluoromethyl)benzyl)-2,3,4,5-tetrahydro-1H-pyrido[4,3-b]indole-8-carboxamide]"
2,1000 to 5000 nM,"N#Cc1ccc(CN2CCC(NC(=O)c3ccc4[nH]c5c(c4c3)CN(Cc3ccccc3)CC5)CC2)cc1 [Compound 2-4, 2-benzyl-N-(1-(4-cyanobenzyl)piperidin-4-yl)-2,3,4,5-tetrahydro-1H-pyrido[4,3-b]indole-8-carboxamide]"

# Same assay, conditions: Table 10, compounds of Table 3
row,EC50,Structure (SMILES)
1,1000 to 10000 nM,"N#Cc1ccc(CN2CCc3ccc(C(=O)NC4CCN(Cc5ccc(C(F)(F)F)cc5)CC4)cc3C2)cc1 [Compound 3-39, 2-(4-cyanobenzyl)-N-(1-(4-(trifluoromethyl)benzyl)piperidin-4-yl)-1,2,3,4-tetrahydroisoquinoline-7-carboxamide]"

# Same assay, conditions: Table 12, compounds of Table 5
row,EC50,Structure (SMILES)
1,10000 to 20000 nM,"O=C(NC1CCN(Cc2ccccc2)CC1)c1ccc(OC2CCN(Cc3ccccc3C(F)(F)F)CC2)c(Cl)c1 [Compound 5-24, N-(1-benzylpiperidin-4-yl)-3-chloro-4-(1-(2-(trifluoromethyl)benzyl)piperidin-4-yloxy)benzamide]"
2,< 1000 nM,"N#Cc1ccc(N2CCC(Oc3cccc(C(=O)NC4CCN(Cc5ccccc5)CC4)c3)CC2)cc1 [Compound 5-48, N-(1-benzylpiperidin-4-yl)-3-(1-(4-cyanophenyl)piperidin-4-yloxy)benzamide]"
3,< 1000 nM,"O=C(NC1CCN(Cc2ccccn2)CC1)c1ccc(OC2CCN(c3ccc(C(F)(F)F)cc3)CC2)c(F)c1 [Compound 5-32, 3-fluoro-N-(1-(pyridin-2-ylmethyl)piperidin-4-yl)-4-(1-(4-(trifluoromethyl)phenyl)piperidin-4-yloxy)benzamide]"

# Same assay, conditions: Table 13, compounds of Table 6
row,EC50,Structure (SMILES)
1,< 100 nM,"COc1ccc(CN2CCC(NC(=O)c3cc4cc(C(=O)N5CCN(c6cc(C(F)(F)F)cc(C(F)(F)F)c6)CC5)ccc4o3)CC2)cc1 [Compound 6-120, 5-(4-(3,5-bis(trifluoromethyl)phenyl)piperazine-1-carbonyl)-N-(1-(4-methoxybenzyl)piperidin-4-yl)benzofuran-2-carboxamide]"
2,< 100 nM,CS(=O)(=O)c1ccc(CN2CCN(C(=O)c3ccc4oc(C(=O)NC5CCN(Cc6ccc(C#N)cc6)CC5)cc4c3)CC2)cc1F [Compound 6-102]
3,< 100 nM,"N#Cc1ccc(CN2CCC(NC(=O)c3cc4cc(C(=O)N5CCN(c6ccc(F)cc6)CC5)ccc4o3)CC2)cc1 [Compound 6-86, N-(1-(4-cyanobenzyl)piperidin-4-yl)-5-(4-(4-fluorophenyl)piperazine-1-carbonyl)benzofuran-2-carboxamide]"
4,< 100 nM,"CS(=O)(=O)c1ccc(OC2CCN(C(=O)c3ccc4oc(C(=O)NC5CCN(Cc6ccc(OC(F)(F)F)cc6)CC5)cc4c3)CC2)cc1 [Compound 6-135, 5-(4-(4-(methylsulfonyl)phenoxy)piperidine-1-carbonyl)-N-(1-(4-(trifluoromethoxy)benzyl)piperidin-4-yl)benzofuran-2-carboxamide]"
5,< 100 nM,"Cc1cc(CN2CCN(C(=O)c3ccc4oc(C(=O)NC5CCN(Cc6ccc(C#N)cc6)CC5)cc4c3)CC2)ccc1S(C)(=O)=O [Compound 6-103, N-(1-(4-cyanobenzyl)piperidin-4-yl)-5-(4-(3-methyl-4-(methylsulfonyl)benzyl)piperazine-1-carbonyl) benzofuran-2-carboxamide]"
6,< 100 nM,"CS(=O)(=O)c1ccc(CN2CCN(C(=O)c3ccc4oc(C(=O)NC5CCN(Cc6ccc(C#N)c(F)c6)CC5)cc4c3)CC2)cc1 [Compound 6-145, N-(1-(4-cyano-3-fluorobenzyl)piperidin-4-yl)-5-(4-(4-(methylsulfonyl)benzyl)piperazine-1-carbonyl) benzofuran-2-carboxamide]"
7,< 100 nM,"N#Cc1ccc(CN2CCC(NC(=O)c3cc4cc(C(=O)N5CCN(Cc6ccc(OC(F)(F)F)cc6)CC5)ccc4o3)CC2)cc1 [Compound 6-81, N-(1-(4-cyanobenzyl)piperidin-4-yl)-5-(4-(4-(trifluoromethoxy)benzyl)piperazine-1-carbonyl) benzofuran-2-carboxamide]"

# Same assay, conditions: Table 14, compounds of Table 7
row,EC50,Structure (SMILES)
1,< 1000 nM,"Cc1nc2cc(OC3CCN(C(=O)c4ccc(C(=O)Nc5ccc(Oc6ccc(C#N)cc6)nc5)cn4)CC3)ccc2s1 [Compound 7-25, N-(6-(4-cyanophenoxy)pyridin-3-yl)-6-(4-(2-methylbenzo[d]thiazol-5-yloxy)piperidine-1-carbonyl)nicotinamide]"
2,< 1000 nM,"COc1ccc(C(=O)C2CCN(C(=O)c3ccc(C(=O)NC4CCN(Cc5ccc(C#N)cc5)C[C@@H]4C)cn3)CC2)cc1 (stereo partly drawn) [Compound 7-78, N-((3,4-trans)-1-(4-cyanobenzyl)-3-methylpiperidin-4-yl)-6-(4-(4-methoxybenzoyl)piperidine-1-carbonyl)nicotinamide]"
3,< 1000 nM,"Cc1nc2cc(OC3CCN(C(=O)c4ccc(C(=O)NC5CCN(Cc6ccc(OC(F)(F)F)cc6)C[C@H]5F)cn4)CC3)ccc2s1 (stereo partly drawn) [Compound 7-51, N-((3,4-trans)-3-fluoro-1-(4-(trifluoromethoxy)benzyl)piperidin-4-yl)-6-(4-(2-methylbenzo[d]thiazol-5-yloxy)piperidine-1-carbonyl)nicotinamide]"
4,< 1000 nM,"COc1ccc(C(=O)C2CCN(C(=O)c3ccc(C(=O)NC4CCN(Cc5ccc(OC(F)(F)F)cc5)CC4(C)C)cn3)CC2)cc1 (stereo not drawn) [Compound 7-85, N-(3,3-dimethyl-1-(4-(trifluoromethoxy)benzyl)piperidin-4-yl)-6-(4-(4-methoxybenzoyl)piperidine-1-carbonyl)nicotinamide]"
